Laboratory results taken from patent US20080139626A1, “Novel Method” (priority 2005, published 2008).
In brackets after ≈: the same amount, converted by molar mass.

Experiments:
[1] = tested on: S. aureus (methicillin-resistant); experiment: MIC by broth microdilution; format: cell-based; details: N=51; for MIC50 / MIC90: Staphylococcus aureus
Procedure: (§1) Whole-cell antimicrobial activity was determined by broth microdilution. Test compounds were dissolved in DMSO and diluted 1:10 in water to produce a 64 mcg/ml stock solution. Using a 96 well microtitre plate, a Microlab AT Plus 2 (Hamilton Co., Reno, Nev.) serially diluted 50 ul of the stock solution into an appropriate broth medium. Staphylococcal isolates were tested using cation adjusted Mueller Hinton broth. For S. pneumonaie testing, the Mueller Hinton broth was supplemented with 5% lysed horse blood and H. influenzae was tested with Haemophilus Test Medium. After the compounds were diluted, a 50 ul aliquot of the test isolate (˜1×10^6 cfu/ml) prepared in normal saline was added to each well of the microtitre plate. The final test concentrations ranged from 0.016-16 ug/mL. Inoculated plates were incubated at 35° C. in ambient air for 18 to 24 hours. The minimum inhibitory concentration (MIC) was determined as the lowest concentration of compound that inhibited visible growth.

[2] = tested on: S. pyogenes (macrolide-resistant); experiment: MIC by broth microdilution; format: cell-based; details: N=83; for MIC50 / MIC90: Streptococcus pyogenes
Procedure: as §1

[3] = tested on: S. pneumoniae (macrolide-resistant); experiment: MIC by broth microdilution; format: cell-based; details: N=552; for MIC50 / MIC90: Streptococcus pneumoniae
Procedure: as §1

[4] = tested on: S. pneumoniae (levofloxacin-resistant); experiment: MIC by broth microdilution; format: cell-based; details: N=13; for MIC50 / MIC90: Streptococcus pneumoniae
Procedure: as §1

[5] = tested on: S. pneumoniae (penicillin-resistant); experiment: MIC by broth microdilution; format: cell-based; details: N=352; for MIC50 / MIC90: Streptococcus pneumoniae
Procedure: as §1

[6] = tested on: methicillin resistant S. aureus WCUH29; experiment: murine groin abscess infection model, oral efficacy; format: in vivo; details: mouse; for reduction of bacterial counts compared to non-treated controls: oral, p≦0.01
Procedure: Oral efficacy of Compound A was evaluated in a murine groin abscess infection model caused by a methicillin resistant S. aureus WCUH29. Animals were infected via subcutaneous injection into the groin with 0.5 mL of inoculum (approximately 5.7 log10 cfu/mouse). Groups of mice (n=5) received either Compound A (100, 300 or 600 mg/kg), moxifloxacin (100 mg/kg) or azithromycin (50 mg/kg).

S. epidermidis Meth^R = experiment: MIC by broth microdilution; format: cell-based; details: 6 isolates
Procedure: as §1

S. aureus Linezolid^R = experiment: MIC by broth microdilution; format: cell-based; details: 3 isolates
Procedure: as §1

H. influenzae ClarR = experiment: MIC by broth microdilution; format: cell-based; details: 5 isolates
Procedure: as §1

S. pneumoniae Cipro^R = experiment: MIC by broth microdilution; format: cell-based; details: 5 isolates
Procedure: as §1

S. pneumoniae Eryth^R = experiment: MIC by broth microdilution; format: cell-based; details: 5 isolates
Procedure: as §1

S. pneumoniae Pen^R = experiment: MIC by broth microdilution; format: cell-based; details: 5 isolates
Procedure: as §1

S. aureus Meth^R/Ery^R = experiment: MIC by broth microdilution; format: cell-based; details: 10 isolates
Procedure: as §1

S. aureus Ketek^R = experiment: MIC by broth microdilution; format: cell-based; details: 4 isolates
Procedure: as §1

S. aureus Tetracycline^R = experiment: MIC by broth microdilution; format: cell-based; details: 6 isolates
Procedure: as §1

H. influenzae BLNAR = experiment: MIC by broth microdilution; format: cell-based; details: 5 isolates
Procedure: as §1

[7] = tested on: S. aureus VRSA (vanc MIC > 4 μg/mL); experiment: MIC by broth microdilution; format: cell-based; details: 2 isolates
Procedure: as §1

S. aureus Mupirocin^R = experiment: MIC by broth microdilution; format: cell-based; details: 8 isolates
Procedure: as §1

[8] = tested on: S. aureus VISA (vanc. MIC 4 μg/mL); experiment: MIC by broth microdilution; format: cell-based; details: 4 isolates
Procedure: as §1

MIC50 [1] [µg/mL] | MIC90 [1] [µg/mL] | MIC50 [2] [µg/mL] | MIC90 [2] [µg/mL] | MIC50 [3] [µg/mL] | MIC90 [3] [µg/mL] | MIC50 [4] [µg/mL] | MIC90 [4] [µg/mL] | MIC50 [5] [µg/mL] | MIC90 [5] [µg/mL] | MIC Range [2] | MIC Range [3] | MIC Range [4] | MIC Range [5] | Structure (SMILES) | also measured
> 16 | > 16 | 16 (≈ 21.4 µM) | > 16 | > 16 | > 16 | 16 (≈ 21.4 µM) | > 16 | > 16 | > 16 | – | – | – | – | CC[C@H]1OC(=O)[C@H](C)[C@@H](O[C@H]2C[C@@](C)(OC)[C@@H](O)[C@H](C)O2)[C@H](C)[C@@H](O[C@@H]2O[C@H](C)C[C@H](N(C)C)[C@H]2O)[C@](C)(O)C[C@@H](C)CN(C)[C@H](C)[C@@H](O)[C@]1(C)O [Azithromycin] | reduction of bacterial counts ([6]; 50 mg/kg): 3.4 log10 cfu/abscess
4 (≈ 9.43 µM) | > 32 | ≤ 0.015 | ≤ 0.015 | 4 (≈ 9.43 µM) | 8 (≈ 18.9 µM) | 2 (≈ 4.71 µM) | 8 (≈ 18.9 µM) | 4 (≈ 9.43 µM) | 8 (≈ 18.9 µM) | ≦0.015-0.12 μg/mL | ≦0.015-32 μg/mL | ≦0.015-8 μg/mL | 1 to 32 µg/mL | CO/N=C(\C(=O)N[C@@H]1C(=O)N2C(C(=O)O)=C(COC(N)=O)CS[C@H]12)c1ccco1 [Cefuroxime] | –
1 (≈ 1.89 µM) | 1 (≈ 1.89 µM) | 0.25 (≈ 0.472 µM) | 0.25 (≈ 0.472 µM) | 0.25 (≈ 0.472 µM) | 0.25 (≈ 0.472 µM) | 0.25 (≈ 0.472 µM) | 0.5 (≈ 0.944 µM) | 0.25 (≈ 0.472 µM) | 0.25 (≈ 0.472 µM) | 0.12 to 0.25 µg/mL | 0.015 to 1 µg/mL | 0.12 to 0.5 µg/mL | 0.03 to 1 µg/mL | C=C[C@]1(C)C[C@@H](OC(=O)NC(=O)c2cnc(OC)c(N)c2)[C@]2(C)C(C)CC[C@]3(C[C@H](O)C(=O)[C@H]32)[C@@H](C)[C@@H]1O (stereo partly shown) [Compound A] | MIC Range (S. epidermidis Meth^R): 0.25 to 1 µg/mL; MIC Range (S. aureus Linezolid^R): 2 µg/mL (≈ 3.78 µM); MIC Range (H. influenzae ClarR): 4 to 8 µg/mL; MIC Range (S. pneumoniae Cipro^R): 0.125 to 0.25 µg/mL; MIC Range [1]: 0.25 to 2 µg/mL; MIC Range (S. pneumoniae Eryth^R): 0.125 to 0.25 µg/mL; MIC Range (S. pneumoniae Pen^R): 0.06 to 0.25 µg/mL; MIC Range (S. aureus Meth^R/Ery^R): 0.5 to 2 µg/mL; MIC Range (S. aureus Ketek^R): 0.5 to 4 µg/mL; MIC Range (S. aureus Tetracycline^R): 0.5 to 2 µg/mL; MIC Range (H. influenzae BLNAR): 2 µg/mL (≈ 3.78 µM); MIC Range [7]: 0.5 µg/mL (≈ 0.944 µM); MIC Range (S. aureus Mupirocin^R): 0.25 to 1 µg/mL; MIC Range [8]: 0.5 to 4 µg/mL; reduction of bacterial counts compared to non-treated controls ([6]; 300 mg/kg): 3.6 log10 cfu/abscess; reduction of bacterial counts compared to non-treated controls ([6]; 600 mg/kg): 4.3 log10 cfu/abscess
0.5 (≈ 1.38 µM) | > 8 | 0.5 (≈ 1.38 µM) | 1 (≈ 2.77 µM) | 1 (≈ 2.77 µM) | 2 (≈ 5.53 µM) | > 8 | > 8 | 1 (≈ 2.77 µM) | 1 (≈ 2.77 µM) | 0.12 to 2 µg/mL | – | – | – | C[C@H]1COc2c(N3CCN(C)CC3)c(F)cc3c(=O)c(C(=O)O)cn1c23 [Levofloxacin] | –
0.12 (≈ 0.299 µM) | 4 (≈ 9.96 µM) | 0.12 (≈ 0.299 µM) | 0.25 (≈ 0.623 µM) | 0.12 (≈ 0.299 µM) | 0.25 (≈ 0.623 µM) | 4 (≈ 9.96 µM) | 8 (≈ 19.9 µM) | 0.12 (≈ 0.299 µM) | 0.25 (≈ 0.623 µM) | 0.06 to 0.5 µg/mL | – | – | – | COc1c(N2C[C@@H]3CCCN[C@@H]3C2)c(F)cc2c(=O)c(C(=O)O)cn(C3CC3)c12 [Moxifloxacin] | reduction of bacterial counts ([6]; 100 mg/kg): 4.6 log10 cfu/abscess
0.25 (≈ 0.308 µM) | > 16 | 0.03 (≈ 0.0369 µM) | 8 (≈ 9.85 µM) | 0.25 (≈ 0.308 µM) | 2 (≈ 2.46 µM) | 0.12 (≈ 0.148 µM) | 0.5 (≈ 0.616 µM) | 0.25 (≈ 0.308 µM) | 2 (≈ 2.46 µM) | – | ≦0.002-16 μg/mL | ≦0.002-2 μg/mL | ≦0.002-16 μg/mL | CC[C@H]1OC(=O)[C@H](C)C(=O)[C@H](C)[C@@H](O[C@@H]2O[C@H](C)C[C@H](N(C)C)[C@H]2O)[C@](C)(OC)C[C@@H](C)C(=O)[C@H](C)[C@H]2N(CCCCn3cnc(-c4cccnc4)c3)C(=O)O[C@]12C [Telithromycin] | –
